Experiments:
[1] = molecular target: T1, Sodium channel protein type 9 subunit alpha (Homo sapiens, UniProt Q15858); assay: Blockade of Nav1.7 by FLIPR TETRA sodium dye assay in presence of KCl salt
[2] = molecular target: T1, Sodium channel protein type 9 subunit alpha; assay: Blockade of Nav1.7 by electrophysiological patch clamp assay

T1 sequence (Q15858 whole entry): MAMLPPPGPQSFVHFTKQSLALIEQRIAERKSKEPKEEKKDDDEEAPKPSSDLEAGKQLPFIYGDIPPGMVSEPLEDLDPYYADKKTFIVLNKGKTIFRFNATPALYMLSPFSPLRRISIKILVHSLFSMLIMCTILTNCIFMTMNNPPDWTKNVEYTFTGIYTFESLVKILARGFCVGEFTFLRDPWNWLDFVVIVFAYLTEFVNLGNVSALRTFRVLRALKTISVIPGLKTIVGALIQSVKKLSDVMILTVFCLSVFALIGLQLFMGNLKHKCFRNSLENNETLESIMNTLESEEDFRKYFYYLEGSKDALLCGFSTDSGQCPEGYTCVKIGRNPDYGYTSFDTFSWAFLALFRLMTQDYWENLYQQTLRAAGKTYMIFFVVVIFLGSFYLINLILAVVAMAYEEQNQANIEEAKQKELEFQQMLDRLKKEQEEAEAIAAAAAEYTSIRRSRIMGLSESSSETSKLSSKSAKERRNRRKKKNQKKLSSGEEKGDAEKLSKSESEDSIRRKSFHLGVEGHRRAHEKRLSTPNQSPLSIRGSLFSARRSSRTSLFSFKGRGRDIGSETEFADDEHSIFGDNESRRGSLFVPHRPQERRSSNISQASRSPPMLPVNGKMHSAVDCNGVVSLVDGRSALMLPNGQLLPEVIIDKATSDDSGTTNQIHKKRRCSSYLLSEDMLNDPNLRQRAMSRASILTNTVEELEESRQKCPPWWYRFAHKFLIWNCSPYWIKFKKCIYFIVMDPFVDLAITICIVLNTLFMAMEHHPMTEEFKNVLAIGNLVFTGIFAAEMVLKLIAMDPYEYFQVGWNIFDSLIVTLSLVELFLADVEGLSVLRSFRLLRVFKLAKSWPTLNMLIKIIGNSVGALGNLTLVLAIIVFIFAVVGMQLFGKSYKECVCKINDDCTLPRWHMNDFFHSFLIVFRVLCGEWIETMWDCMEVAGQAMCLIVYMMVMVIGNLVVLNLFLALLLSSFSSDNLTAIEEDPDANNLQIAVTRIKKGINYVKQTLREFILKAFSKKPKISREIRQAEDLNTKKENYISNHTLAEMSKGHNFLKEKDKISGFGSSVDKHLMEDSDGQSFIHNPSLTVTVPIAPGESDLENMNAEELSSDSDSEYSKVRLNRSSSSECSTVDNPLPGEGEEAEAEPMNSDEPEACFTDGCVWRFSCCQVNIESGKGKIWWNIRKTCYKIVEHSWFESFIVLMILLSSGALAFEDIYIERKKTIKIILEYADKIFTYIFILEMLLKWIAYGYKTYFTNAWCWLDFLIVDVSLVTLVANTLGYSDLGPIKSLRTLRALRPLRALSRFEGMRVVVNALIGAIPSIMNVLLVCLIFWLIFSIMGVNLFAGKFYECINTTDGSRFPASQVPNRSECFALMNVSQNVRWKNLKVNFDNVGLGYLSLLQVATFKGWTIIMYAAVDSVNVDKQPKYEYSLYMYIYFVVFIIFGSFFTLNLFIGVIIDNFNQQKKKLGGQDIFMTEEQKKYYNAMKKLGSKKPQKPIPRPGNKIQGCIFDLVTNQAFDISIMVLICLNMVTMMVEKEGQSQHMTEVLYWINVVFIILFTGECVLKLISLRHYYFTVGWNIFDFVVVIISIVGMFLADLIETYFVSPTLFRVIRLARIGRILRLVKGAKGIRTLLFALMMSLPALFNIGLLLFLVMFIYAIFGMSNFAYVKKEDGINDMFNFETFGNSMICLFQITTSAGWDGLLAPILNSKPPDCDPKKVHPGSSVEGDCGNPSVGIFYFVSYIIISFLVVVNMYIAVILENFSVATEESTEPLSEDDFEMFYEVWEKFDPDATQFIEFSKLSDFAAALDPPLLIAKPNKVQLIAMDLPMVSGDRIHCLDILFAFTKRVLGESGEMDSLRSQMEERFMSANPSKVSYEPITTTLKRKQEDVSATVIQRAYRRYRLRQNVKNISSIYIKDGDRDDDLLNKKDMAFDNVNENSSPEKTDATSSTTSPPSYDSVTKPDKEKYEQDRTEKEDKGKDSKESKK

O=C(N[C@@H](CO)C(=O)Nc1cccc(-c2ccc(Oc3ccc(F)cc3)cc2)n1)c1ccccn1
IC50 [1]: 140 nM | Ki [2]: 195 nM

Reference: ChEMBL document CHEMBL2151011, “Substituted pyridines as sodium channel blockers: patent highlight” (ACS Med Chem Lett, 2012)
